{"source": "patent US12319641B2", "about": "“Lobaric acid derivative having PTP-1B inhibitory activity, preparation method therefor and use thereof” (SNBIOSCIENCE INC., priority 2019, dated 2025)", "key": {"[1]": {"tested_on": "db/db mice (type 2 diabetes model animal)", "experiment": "Blood glucose after daily oral administration in diabetic disease model animals", "type": "in vivo", "settings": "for antidiabetic effects by oral administration: diabetic disease model animals", "description": "To more accurately measure antidiabetic effects of dimethyl lobamide, 200 μl of PBS as a control and 50 mg/kg of dimethyl lobamide compound as an experimental group were orally administered daily to 7-week-old male db/db mice (type 2 diabetes model animal, C57/BLKS/J-db/db, Korea Research Institute of Bioscience and Biotechnology). Thereafter, blood glucose was measured once a week. At this time, after oral administration, blood glucose was measured after fasting for 6 hours."}, "[2]": {"target": "T1, protein tyrosine phosphatase-1B (PTP-1B) (Homo sapiens, UniProt P18031)", "T1 construct": "purchased Bioneer, Korea", "T1 sequence (P18031 1-435)": "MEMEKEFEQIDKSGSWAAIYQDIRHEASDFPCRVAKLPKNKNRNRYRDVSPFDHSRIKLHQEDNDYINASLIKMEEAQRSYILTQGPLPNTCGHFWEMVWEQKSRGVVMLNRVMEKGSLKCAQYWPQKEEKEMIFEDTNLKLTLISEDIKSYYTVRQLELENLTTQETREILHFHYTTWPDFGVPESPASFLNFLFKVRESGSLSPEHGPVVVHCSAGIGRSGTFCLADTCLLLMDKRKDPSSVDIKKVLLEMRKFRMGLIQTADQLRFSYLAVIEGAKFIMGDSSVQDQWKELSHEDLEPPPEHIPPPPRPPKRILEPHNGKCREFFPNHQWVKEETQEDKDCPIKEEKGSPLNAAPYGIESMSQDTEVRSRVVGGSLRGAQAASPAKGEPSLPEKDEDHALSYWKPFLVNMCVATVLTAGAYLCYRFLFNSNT", "settings": "comparison compounds; lobarstin from Korean Patent Registration No. 10-1481141; read-out: IC50 of PTP-1B inhibitory activity, comparison value; cited from earlier work"}, "[3]": {"experiment": "Body weight after oral administration in diabetic disease model animals", "type": "in vivo", "settings": "db/db mice; for change in body weight compared to the control: oral administration", "description": "To 7-week-old male db/db mice (type 2 diabetes model animal, C57/BLKS/J-db/db, Korea Research Institute of Bioscience and Biotechnology), 200 μl of PBS as a control and 50 mg/kg of dimethyl lobamide as an experimental group were orally administered daily. After administration, in order to investigate the change in body weight, the compound (dimethyl-lobamide) was orally administered twice a week at a fixed time, and then the body weight was measured using an animal scale."}, "[4]": {"target": "T1, protein tyrosine phosphatase-1B (PTP-1B)", "experiment": "PTP-1B inhibitory activity, enzyme activity measured spectroscopically with pNPP substrate", "type": "biochemical", "description": "In order to analyze protein tyrosine phosphatase-1B (PTP-1B) inhibitory activity, enzyme activity was measured spectroscopically.\nSpecifically, to 0.5 μg/mL of PTP-1B (Bioneer, Korea), PTP-1B buffer (50 mM Bis-tris buffer, pH 6.5, 1 mM EDTA, 1 mM DTT), dimethyl lobamide (M11A7) (0, 0.4, 0.8, 1.6, 3.12, 6.25, 12.5, 25 nM) and the substrate pNPP (para Nitrophenyl phosphate, Sigma, USA) were added and reacted at room temperature for 30 minutes. Then, 10 N NaOH was added thereto, followed by reaction at room temperature for 5 minutes to terminate the reaction between PTP-1B, dimethyl lobamide and the substrate. Thereafter, the absorbance was measured at 405 nm."}}, "note": "Like-named read-outs stand apart in the source and are kept apart here."}
{"smiles": "CCC/C=C1/OC(=O)c2c(Oc3c(O)cc(O)c(C(=O)O)c3CCCCC)cc(OC)cc21", "note": "[lobarstin, reference compound]", "values": [{"measurement": "antidiabetic effects by oral administration", "setting": "[1]", "value": "no antidiabetic effects by oral administration"}, {"measurement": "IC50", "setting": "[2]", "value": 154, "unit": "nM"}]}
{"smiles": "CCCCCc1c(Oc2cc(OC)cc(C(=O)CCCC)c2C(=O)N(C)C)c(O)cc(O)c1C(=O)O", "note": "[dimethyl lobamide]", "values": [{"measurement": "average body weight on day 0", "setting": "[3]; 50 mg/kg oral, day 0", "value": 30.95, "unit": "g"}, {"measurement": "average body weight on day 7", "setting": "[3]; 50 mg/kg oral, day 7", "value": 31.78, "unit": "g"}, {"measurement": "average body weight on day 14", "setting": "[3]; 50 mg/kg oral, day 14", "value": 34.86, "unit": "g"}, {"measurement": "change in body weight compared to the control", "setting": "[3]", "value": "body weight reducing effects were demonstrated"}, {"measurement": "change in body weight compared to the control", "setting": "[3]; listed as dimethyl-lobamide", "value": "no significant change in body weight"}, {"measurement": "average blood glucose on day 0", "setting": "[1]; db/db mice, 50 mg/kg oral daily, after fasting 6 hours, day 0", "value": 193, "unit": "mg/dL"}, {"measurement": "average blood glucose on day 7", "setting": "[1]; db/db mice, 50 mg/kg oral daily, after fasting 6 hours, day 7", "value": 194, "unit": "mg/dL"}, {"measurement": "average blood glucose on day 14", "setting": "[1]; db/db mice, 50 mg/kg oral daily, after fasting 6 hours, day 14", "value": 268, "unit": "mg/dL"}, {"measurement": "increase in blood glucose versus control", "setting": "[1]; db/db mice, 50 mg/kg oral, day 0 to 14", "value": "lower increase in blood glucose than the control"}, {"measurement": "antidiabetic effects by oral administration", "setting": "[1]", "value": "could have the antidiabetic effects by oral administration"}, {"measurement": "PTP-1B inhibition rate", "setting": "[4]; 0-25 nM", "value": "increased in a concentration-dependent manner"}, {"measurement": "IC50", "setting": "[4]; 0.5 μg/mL PTP-1B, pNPP, room temperature 30 minutes, absorbance 405 nm", "value": 2.16, "unit": "nM"}]}
